From patent US20090324742A1, “Peham dendrimers as excipients” (priority 2006, published 2009) come the findings set out here.

≈ marks a conversion by molar mass, not a printed value.

A short description of data set [1]: Aqueous solubility of paclitaxel with PEHAM dendritic polymer (HPLC). Format: physicochemical. The following applies: DI water without dendrimer, thermodynamic from solid. Here is the method: The sample was subjected to brief ultrasonication and heating at 50° C. for 10 mins., followed by overnight shaking at RT. The sample was then centrifuged for 5 mins. and the paclitaxel content measured by HPLC.

Data set [2] is described as follows: Solubility enhancement of vitamin D3 by PEHAM dendritic polymers (HPLC). Format: physicochemical. The settings on record: pure Active Material control without dendrimer; detection limit. Here is the method:
An excess of the cosmetic and nutrient Active Material, vitamin D3, (Sigma) was added to vials containing PEHAM dendritic polymers G=1.0 and G=2.0 with PETGE or TMPTGE cores and amine surfaces, partially PEGylated (25% PEG-550) amine surfaces, or carboxylate surfaces, dissolved in 20% (v/v) aqueous methanol at 1 wt % concentrations. These suspensions were briefly ultrasonicated in a water bath at RT, then incubated overnight at 32° C. and 100 rpm in a shaking water bath, and allowed to equilibrate at RT. The suspensions were filtered through a 0.2-μm Nylon syringe filter to remove not encapsulated Active Material. Solvent was removed and the residue redispersed in DI water. The samples were analyzed for dendrimer-associated vitamin D3 by HPLC. Association results are expressed in ng Active Material per mL solution. […] The pure Active Material as control remains below detection limit of 50 ng/mL.

In the case of `CC(=O)O[C@H]1C(=O)[C@@]2(C)[C@H]([C@H](OC(=O)c3ccccc3)[C@]3(O)C[C@H](OC(=O)[C@H](O)[C@@H](NC(=O)c4ccccc4)c4ccccc4)C(C)=C1C3(C)C)[C@]1(OC(C)=O)CO[C@@H]1C[C@@H]2O` [paclitaxel], the solubility in data set [1] is 0.3 µg/mL (≈ 0.351 µM).

As for `C=C1CC[C@H](O)C/C1=C/C=C1\CCC[C@]2(C)[C@@H]([C@H](C)CCCC(C)C)CC[C@@H]12` [vitamin D3], in data set [2], the “vitamin D3 solubility” value was below 0.05 µg/mL.

Usually solubility stands for the dissolved amount per volume that the medium holds.
